Laboratory results published in patent US11046954B2, “Targeted protein degradation to attenuate adoptive T-cell therapy associated adverse inflammatory responses” (Dana-Farber Cancer Institute, Inc., priority 2015, dated 2021).

Columns and labels:
[1] = tested on: indicated proteins fused to mutant FKBP*; assay: Immunoblot of MV4;11 leukemia cells expressing proteins fused to mutant FKBP* with an HA tag; details: 16 hours, indicated concentrations
Description: Immunoblots of MV4; 11 leukemia cells expressing indicated proteins fused to mutant FKBP* with an HA tag.
To test the general utility of the dTAG technology across several protein types, the indicated proteins fused to the dTAG in MV4; 11 leukemia cells were expressed.

FKBP* = biological target: T1, FKBP* (Homo sapiens, UniProt P62942, F37V); assay: Immunoblot of 293FT cells (CRBN-WT or CRBN−/−) expressing HA-tagged FKBP*; type: cell-based; details: for degradation of FKBP*: 100 nM
T1 construct: HA; expressed in transfected cells; host or cells: 293FT cells (CRBN-WT or CRBN-/-)
Experimental: FIG. 6 is an immunoblot of cells treated with bi-functional molecules described in the present invention. 293FT cells (CRBN-WT or CRBN−/−) expressing either HA-tagged FKBP12WT or FKBP* (also referred to as dFKBP12* herein) were treated with indicated concentrations of dFKBP7 for 4 hours.
Isogenic 293FT cells (CRBN-WT or CRBN−/−) expressing either FKBP12WT or FKBP* were treated with 100 nM of either dFKBP7 or dFKBP13 for 4 hours.
Isogenic 293FT cells (CRBN-WT or CRBN−/−) expressing HA-tagged FKBP* were treated with the indicated dose of dFKBP13 for 4 hours.
293FT cells (CRBN-WT) expressing HA-tagged FKBP* were treated with 100 nM dFKBP13 for the indicated times. Cells were harvested and protein lysates immunoblotted to measure the kinetics of HA-tagged FKBP* degradation induced by dFKBP13.
The dTAG is predicated on the selectivity of FKBP* specific ligands over endogenous, wild type FKBP. In 293 T cells expressing wild type FKBP 12 or FKBP*, dFKBP7 induces targeted degradation only in FKBP* expressing cells. An immunoblot of cells treated with bi-functional molecules described in the present invention was performed. 293FT cells (CRBN-WT or CRBN−/−) expressing either HA-tagged FKBP12WT or FKBP* were treated with indicated concentrations of dFKBP7 for 4 hours.
In 293T cells expressing wild type FKBP12 or FKBP*, treatment with dFKBP7 and dFKBP13 induces targeted degradation only in FKBP* expressing cells. Isogenic 293FT cells (CRBN-WT or CRBN−/−) were engineered to express either FKBP12WT or FKBP*. Cells were treated with 100 nM of either dFKBP7 or dFKBP13 for 4 hours before lysates were prepared for western immunoblot analysis.
In an effort to define the optimal concentration of dFKB13 heterobifunctional compounds to induce degradation of FKBP*, degradation was measured upon treatment with increasing concentrations of dFKBP13. Isogenic 293FT cells (CRBN-WT or CRBN−/−) were engineered to expressed HA-tagged FKBP*. Cells were treated with the indicated dose of dFKBP13 for 4 hours before lysates were prepared for western immunoblot analysis.
To evaluate the kinetic control of targeted degradation FKBP*, dFKBP13 was administered by increased duration. 293FT cells (CRBN-WT) were engineered to express HA-tagged FKBP*. Cells were treated with 100 nM dFKBP13 for the indicated times. Cells were harvested and protein lysates immunoblotted to measure the kinetics of HA-tagged FKBP* degradation induced by dFKBP 13.

CD19-CAR-dTAG = biological target: T2, CD19-CAR-dTAG (Homo sapiens, UniProt P62942+Q96SW2, F37V/H95N/M50V/V99I); assay: Immunoblot of Jurkat T-cells expressing CD19-CAR-dTAG; type: cell-based; details: for degradation of CD19-CAR-dTAG, time dependence: 250 nM, indicated time; for degradation of CD19-CAR-dTAG, dose dependence: indicated dose, 4 hours
T2 construct: HA; expressed in transfected cells; host or cells: Jurkat T-cells (lentiviral transduction, blasticidin selection)
Experimental: Jurkat T-cells were transduced with lentivirus expressing CD19-CAR-dTAG. Cells were selected with blasticidin and expanded. Stable expression of CD19-CAR-dTAG was confirmed.
Jurkat T-cells expressing CD19-CAR-dTAG were treated with the indicated dose of dFKBP7 or dFKBP13 for 4 hours.
FIG. 15A and FIG. 15B are immunoblots of cells treated with bi-functional molecules described in the present invention. Jurkat T-cells expressing CD19-CAR-dTAG were treated with 250 nM of dFKBP7 or dFKBP13 for the indicated time.
Jurkat T-cells expressing CD19-CAR-dTAG were treated with 250 nM of dFKBP7 for 4 hours. The dFKBP7 was then removed from the Jurkat cells via washouts and the re-expression of CD19-CAR-dTAG was monitored by immunoblot analysis at the indicated time points.
(§1) FIG. 17A illustrates the experimental design to measure the ability to control the expression CD19-CAR-dTAG in T-cells upon addition and removal of dFKBP7. Jurkat cells expressing CD19-CAR-dTAG were treated with 250 nM of dFKBP7 at the indicated time points (0 and 8 hours). At 4 and 12 hours, the dFKBP7 was washed out of the Jurkat cells. At each indicated timepoint, Jurkat cells were harvest to monitor CD19-CAR-dTAG expression levels via immunoblot analysis. FIG. 17B is the resulting immunoblot from the experimental design in FIG. 17A.
Jurkat T-cells were transduced with lentivirus expressing CD19-CAR-dTAG. Cells were selected with blasticidin and expanded. Stable expression of CD19-CAR-dTAG in Jurkat cells was confirmed by anti-HA western immunoblotting of whole cell lysates.
In an effort to define the optimal concentration of bifunctional molecules to induce degradation of CD19-CAR-dTAG, degradation was measured upon treatment with increasing concentrations of dFKBP7 and dFKBP13. Jurkat T-cells were engineered to express CD19-CAR-dTAG. Cells were treated with the indicated dose of dFKBP7 or dFKBP13 for 4 hours before lysates were prepared for western immunoblot analysis.
To evaluate the kinetic control of targeted degradation of CD19-CAR-dTAG, a fixed concentration of bi-functional molecules dFKBP7 and dFKBP13 were administered at a fixed concentration for increased duration. Jurkat T-cells were engineered to express CD19-CAR-dTAG. Cells were treated with 250 nM dFKBP7 or dFKBP13 for the indicated time before lysates were prepared for immunoblot analysis.
Immunoblot illustrating the kinetics of re-expression of the CD19-CAR-dTAG protein following targeting degradation with dFKBP7. Jurkat T-cells engineered to express CD19-CAR-dTAG were treated with 250 nM of dFKBP7 for 4 hours. The dFKBP7 was then removed from the Jurkat cells via washouts and the re-expression of CD19-CAR-dTAG was monitored by immunoblot analysis at the indicated time points.
as §1, with “engineered to express” for “expressing”, “analysis.” for “analysis. FIG. 17B is the resulting immunoblot from the experimental design in FIG. 17A.”
FIG. 17B is an immunoblot illustrating the ability to toggle on and off expression of CD19-CAR-dTAG as described in FIG. 17A.

[2] = isogenic 293FT CRBN-WT or CRBN−/−, 4 hours

T2 sequence (P62942 with tags, fused parts or gaps F37V/M50V/H95N/V99I limits assumed): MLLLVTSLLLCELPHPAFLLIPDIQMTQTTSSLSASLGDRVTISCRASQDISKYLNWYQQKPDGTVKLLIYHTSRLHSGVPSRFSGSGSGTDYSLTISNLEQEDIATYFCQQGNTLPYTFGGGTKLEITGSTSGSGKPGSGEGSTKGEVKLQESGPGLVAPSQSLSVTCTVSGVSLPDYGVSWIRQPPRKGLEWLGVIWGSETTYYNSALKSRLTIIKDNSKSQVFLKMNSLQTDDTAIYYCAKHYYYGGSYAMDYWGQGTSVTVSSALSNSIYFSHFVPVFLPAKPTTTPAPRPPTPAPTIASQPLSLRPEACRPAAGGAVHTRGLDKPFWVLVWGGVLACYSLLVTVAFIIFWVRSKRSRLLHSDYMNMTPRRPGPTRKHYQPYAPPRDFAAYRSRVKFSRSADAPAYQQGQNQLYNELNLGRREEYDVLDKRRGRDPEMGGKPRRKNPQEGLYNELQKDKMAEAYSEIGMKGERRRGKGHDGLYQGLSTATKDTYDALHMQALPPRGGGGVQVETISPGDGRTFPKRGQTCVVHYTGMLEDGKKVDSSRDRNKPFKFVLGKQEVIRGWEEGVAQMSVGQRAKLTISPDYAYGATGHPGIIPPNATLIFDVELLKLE
T2 sequence (Q96SW2 whole entry): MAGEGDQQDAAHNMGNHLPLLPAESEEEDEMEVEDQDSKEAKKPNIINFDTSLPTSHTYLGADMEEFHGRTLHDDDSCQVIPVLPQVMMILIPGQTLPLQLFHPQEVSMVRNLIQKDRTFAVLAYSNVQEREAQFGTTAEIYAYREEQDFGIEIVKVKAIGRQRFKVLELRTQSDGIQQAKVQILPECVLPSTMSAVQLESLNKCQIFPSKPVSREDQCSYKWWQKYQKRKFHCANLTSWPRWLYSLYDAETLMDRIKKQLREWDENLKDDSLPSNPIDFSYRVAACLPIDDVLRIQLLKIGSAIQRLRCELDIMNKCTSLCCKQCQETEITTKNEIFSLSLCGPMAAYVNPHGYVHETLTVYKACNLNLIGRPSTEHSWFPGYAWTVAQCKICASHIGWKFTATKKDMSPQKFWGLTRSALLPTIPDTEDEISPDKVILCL
T2 sequence (Q16531 whole entry partner): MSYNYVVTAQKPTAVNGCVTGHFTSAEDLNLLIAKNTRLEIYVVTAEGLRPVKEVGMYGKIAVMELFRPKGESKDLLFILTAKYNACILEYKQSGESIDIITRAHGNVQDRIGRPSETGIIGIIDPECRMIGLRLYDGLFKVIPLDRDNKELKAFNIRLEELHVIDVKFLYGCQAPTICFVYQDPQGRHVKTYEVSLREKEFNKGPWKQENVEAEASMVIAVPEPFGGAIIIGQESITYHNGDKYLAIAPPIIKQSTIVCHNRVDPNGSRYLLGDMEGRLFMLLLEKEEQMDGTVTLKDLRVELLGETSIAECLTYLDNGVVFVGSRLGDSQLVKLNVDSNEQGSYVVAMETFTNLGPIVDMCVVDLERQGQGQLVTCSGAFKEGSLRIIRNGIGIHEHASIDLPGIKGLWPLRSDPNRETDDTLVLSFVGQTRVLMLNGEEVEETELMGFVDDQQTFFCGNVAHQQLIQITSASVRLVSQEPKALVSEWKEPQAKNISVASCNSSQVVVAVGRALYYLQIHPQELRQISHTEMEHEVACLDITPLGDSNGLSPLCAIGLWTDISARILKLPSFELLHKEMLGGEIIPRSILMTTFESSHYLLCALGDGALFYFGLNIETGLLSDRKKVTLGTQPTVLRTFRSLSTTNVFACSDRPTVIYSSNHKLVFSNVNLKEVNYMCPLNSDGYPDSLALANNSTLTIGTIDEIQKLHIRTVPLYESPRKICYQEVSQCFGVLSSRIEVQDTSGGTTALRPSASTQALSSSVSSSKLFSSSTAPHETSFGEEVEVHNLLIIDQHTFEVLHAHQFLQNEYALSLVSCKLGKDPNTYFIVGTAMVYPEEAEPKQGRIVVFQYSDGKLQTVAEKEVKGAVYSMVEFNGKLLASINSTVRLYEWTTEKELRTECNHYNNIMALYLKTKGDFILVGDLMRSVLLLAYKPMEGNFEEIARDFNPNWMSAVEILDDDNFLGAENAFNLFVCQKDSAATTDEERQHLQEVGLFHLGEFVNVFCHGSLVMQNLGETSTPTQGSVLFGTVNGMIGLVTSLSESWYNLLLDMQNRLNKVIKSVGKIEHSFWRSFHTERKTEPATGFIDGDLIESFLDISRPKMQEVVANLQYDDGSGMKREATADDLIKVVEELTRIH
T1 sequence (P62942 whole entry F37V): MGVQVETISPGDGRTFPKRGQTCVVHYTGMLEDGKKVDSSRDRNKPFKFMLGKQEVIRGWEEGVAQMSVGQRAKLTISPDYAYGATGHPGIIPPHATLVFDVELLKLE

| Compound | degradation of proteins fused to dTAG (FKBP*) [1] | degradation of HA-tagged FKBP* (FKBP*; 293FT CRBN-WT or CRBN−/−, indicated concentrations of dFKBP7, 4 hours) | degradation of FKBP* (FKBP*; [2]) | re-expression of CD19-CAR-dTAG after washout (CD19-CAR-dTAG; Jurkat T-cells, 250 nM dFKBP7 4 hours, then removed via washouts) | degradation of CD19-CAR-dTAG, time dependence (CD19-CAR-dTAG; Jurkat T-cells) | degradation of CD19-CAR-dTAG, dose dependence (CD19-CAR-dTAG; Jurkat T-cells) | rheostat chemical control of CD19-CAR-dTAG expression (CD19-CAR-dTAG; Jurkat cells, 250 nM dFKBP7 at 0 and 8 hours, washed out at 4 and 12 hours) | degradation of HA-tagged FKBP*, dose dependence (FKBP*; isogenic 293FT CRBN-WT or CRBN−/−, indicated dose, 4 hours) |
| --- | --- | --- | --- | --- | --- | --- | --- | --- |
| CC[C@H](C(=O)N1CCCC[C@H]1C(=O)O[C@H](CCc1ccc(OC)c(OC)c1)c1cccc(OCC(=O)NCCCOCCOCCOCCCNC(=O)COc2cccc3c2C(=O)N(C2CCC(=O)NC2=O)C3=O)c1)c1cc(OC)c(OC)c(OC)c1 (stereo partly drawn) [dFKBP7] | degradation was observed with nanomolar concentrations | CRBN-dependent degradation of FKBP* | CRBN-dependent degradation of FKBP* | protein levels recovered following removal | time-dependent degradation | dose-dependent degradation | allows for exquisite chemical control of CD19-CAR-dTAG protein levels allowing for modulation within hours |  |
| CC[C@H](C(=O)N1CCCC[C@H]1C(=O)O[C@H](CCc1ccc(OC)c(OC)c1)c1cccc(OCC(=O)NCCCCCCOc2cccc3c2C(=O)N(C2CCC(=O)NC2=O)C3=O)c1)c1cc(OC)c(OC)c(OC)c1 (stereo partly drawn) [dFKBP13] | degradation was observed with nanomolar concentrations |  | CRBN-dependent degradation of FKBP* |  | time-dependent degradation | dose-dependent degradation |  | dose- and CRBN-dependent degradation |
